Data as given in patent publication US11535643B2, “Macrolides with modified desosamine sugars and uses thereof” (President and Fellows of Harvard College, priority 2015, dated 2022).
In brackets after ≈: the same amount, converted by molar mass.

How the values were obtained:
Assay type in all cases: cell-based
[1] = tested on: E. faecalis; assay: Broth dilution MIC determination (CLSI) against E. faecalis strains; conditions: for MIC E. faecalis ATCC29212: ATCC29212, Strain No. MP-24; for MIC E. faecalis van resistant: Strain No. UNT-039
Description: (§1) Minimum inhibitory concentrations (MICs) for macrolides described herein have been determined for unique strains of S. aureus, S. pneumoniae, S. pyogenes, E. faecalis, E. coli, A. baumannii, K. pneumoniae, P. aeruginosa, and H. influenzae, including several multidrug-resistant strains, with a special focus on macrolide resistant mechanisms. Azithromycin and solithromycin were included as control compounds. CLSI standard procedures for broth dilution MIC determination were used. Data for exemplary compounds described herein is shown in Tables M1-M7 and in Tables N1-N4.

[2] = tested on: A. baumannii; assay: Broth dilution MIC determination (CLSI) against A. baumannii strains; conditions: for MIC A. baumannii ATCC19606: ATCC19606, Strain No. MP-15
Description: as §1

[3] = tested on: E. coli; assay: Broth dilution MIC determination (CLSI) against E. coli strains; conditions: for MIC E. coli ATCC25922: ATCC25922, Strain No. MP-4; for MIC E. coli ATCC25922:tolC: Strain No. MP-9; for MIC E. coli clinical: Strain No. MP541; for MIC E. coli clinical-cErm: Strain No. MP532
Description: as §1

[4] = tested on: K. pneumoniae; assay: Broth dilution MIC determination (CLSI) against K. pneumoniae strains; conditions: for MIC K. pneumoniae ATCC10031: ATCC10031, Strain No. MP-14
Description: as §1, with “used.” for “used. Data for exemplary compounds described herein is shown in Tables M1-M7 and in Tables N1-N4.”

[5] = tested on: P. aeruginosa; assay: Broth dilution MIC determination (CLSI) against P. aeruginosa strains; conditions: for MIC P. aeruginosa ATCC27853: ATCC27853, Strain No. MP-3; for MIC P. aeruginosa PAO1: PAO1, Strain No. MP-7; for MIC P. aeruginosa PAO1:mex: Strain No. MP-8
Description: as §1

[6] = tested on: S. pyogenes; assay: Broth dilution MIC determination (CLSI) against S. pyogenes strains; conditions: for MIC S. pyogenes ATCC19615: ATCC19615, Strain No. MP-19; for MIC S. pyogenes mac resistant: Strain No. MP-625 UNT-014
Description: as §1

[7] = tested on: S. aureus; assay: Broth dilution MIC determination (CLSI) against S. aureus strains; conditions: for MIC S. aureus ATCC29213: ATCC29213, Strain No. MP-12; for MIC S. aureus ATCCBAA-977: ATCCBAA-977, Strain No. MP-17; for MIC S. aureus (MRSA) GISA USA600: GISA USA600, Strain No. MP-619 UNT-120; for MIC S. aureus (MRSA) ST-228 cErm: Strain No. MP-513; for MIC S. aureus (MRSA) USA100: USA100, Strain No. MP-618 UNT-096; for MIC S. aureus (MRSA) USA300: USA300, Strain No. MP-549; for MIC S. aureus (MRSA) ermA phenotype: Strain No. MP-620 UNT-146
Description: as §1

[8] = tested on: S. pneumoniae; assay: Broth dilution MIC determination (CLSI) against S. pneumoniae strains; conditions: for MIC S. pneumoniae ATCC49619: ATCC49619, Strain No. MP-21
Description: as §1

Row | Structure (SMILES) | MIC E. faecalis ATCC29212 [1] [µg/mL] | MIC E. faecalis van resistant [1] [µg/mL] | MIC A. baumannii ATCC19606 [2] [µg/mL] | MIC A. baumannii clinical ([2]; Strain No. MP576) [µg/mL] | MIC A. baumannii clinical ([2]; Strain No. MP577) [µg/mL] | MIC E. coli ATCC25922 [3] [µg/mL] | MIC E. coli ATCC25922:tolC [3] [µg/mL] | MIC E. coli clinical [3] [µg/mL] | MIC E. coli clinical-cErm [3] [µg/mL] | MIC K. pneumoniae ATCC10031 [4] [µg/mL] | MIC K. pneumoniae clinical ([4]; Strain No. MP546) [µg/mL] | MIC K. pneumoniae clinical ([4]; Strain No. MP548) [µg/mL] | MIC P. aeruginosa ATCC27853 [5] [µg/mL] | MIC P. aeruginosa PAO1 [5] [µg/mL] | MIC P. aeruginosa PAO1:mex [5] [µg/mL] | MIC S. pyogenes ATCC19615 [6] [µg/mL] | MIC S. pyogenes mac resistant [6] [µg/mL] | MIC S. aureus ATCC29213 [7] [µg/mL] | MIC S. aureus ATCCBAA-977 [7] [µg/mL] | MIC S. aureus (MRSA) GISA USA600 [7] [µg/mL] | further results
1 | CCC1OC(=O)C(C)C(=O)C(C)C(OC2OC(C)CC(NCC(=O)O)C2O)C(C)(OC)CC(C)CNC(C)C2N(CCCCn3cc(-c4cccc(N)c4)nn3)C(=O)OC12C (stereo not drawn) [FSM-120368] | >64 | >64 | >64 | >64 | >64 | >64 | >64 | >64 | >64 | >64 | >64 | >64 | >64 | >64 | >64 | 8 (≈ 9.32 µM) | 32 (≈ 37.3 µM) | >64 | >64 | >64 | MIC S. aureus (MRSA) ST-228 cErm [7]: >64 µg/mL; MIC S. aureus (MRSA) USA100 [7]: >64 µg/mL; MIC S. aureus (MRSA) USA300 [7]: >64 µg/mL; MIC S. aureus (MRSA) ermA phenotype [7]: >64 µg/mL; MIC S. pneumoniae ATCC49619 [8]: 16 µg/mL (≈ 18.6 µM); MIC S. pneumoniae mefA ([8]; Strain No. MP-626 UNT-038): 16 µg/mL (≈ 18.6 µM); MIC S. pneumoniae mefA ([8]; Strain No. MP-627 UNT-039): 8 µg/mL (≈ 9.32 µM)
2 | C=CCOCC1CC(N(C)C)C(O)C(OC2C(C)C(=O)C(C)C(=O)OC(CC)C3(C)OC(=O)N(CCCCn4cc(-c5cccc(N)c5)nn4)C3C(C)NCC(C)CC2(C)OC)O1 (stereo not drawn) [FSM-120383] | 8 (≈ 9.05 µM) | >64 | 32 (≈ 36.2 µM) | >64 | 64 (≈ 72.4 µM) | 32 (≈ 36.2 µM) | 4 (≈ 4.52 µM) | 32 (≈ 36.2 µM) | >64 | 8 (≈ 9.05 µM) | >64 | >64 | 32 (≈ 36.2 µM) | 64 (≈ 72.4 µM) | 8 (≈ 9.05 µM) | 0.25 (≈ 0.283 µM) | 1 (≈ 1.13 µM) | >64 | 64 (≈ 72.4 µM) | >64 | MIC S. aureus (MRSA) ST-228 cErm [7]: >64 µg/mL; MIC S. aureus (MRSA) USA100 [7]: >64 µg/mL; MIC S. aureus (MRSA) USA300 [7]: >64 µg/mL; MIC S. aureus (MRSA) ermA phenotype [7]: >64 µg/mL; MIC S. pneumoniae ATCC49619 [8]: 0.5 µg/mL (≈ 0.566 µM); MIC S. pneumoniae mefA ([8]; Strain No. MP-626 UNT-038): 0.5 µg/mL (≈ 0.566 µM); MIC S. pneumoniae mefA ([8]; Strain No. MP-627 UNT-039): 0.5 µg/mL (≈ 0.566 µM)
